From patent publication US10617662B2, “Autophagy activation-induced compound for improving skin inflammation for aging” (INCOSPHARM CORPORATION, priority 2017, dated 2020)

Legend:
[1] = test system: LC3 (light chain 3) protein; test: Western blot for LC3 protein, autophagy activation; type: cell-based, human; conditions: HaCaT cells; 20 uM dilution, 1 ml added to 1 ml medium; FIG. 1
Method: In order to analyze increased intracellular autophagy activation by treatment of Compound 8 of the present invention, a western blot analysis for LC3 (light chain 3) protein was performed.
As a specific experimental method, HaCaT, human epidermal keratinocytes were seeded in on a 6 well plate at a density of 3×10^5 cells, and cultured in DMEM (Dulbecco's Modified Eagle Media, Gibco BRL) in an incubator under 37° C. and 5% CO2 for 24 hours. Compound 8 of the present invention was dissolved in DMSO at a concentration of 10 mM to be a concentrate, and diluted with a medium to be at a concentration of 20 uM. Then in a state where 1 ml of medium was first in each well, 1 ml of each diluted solution was added thereto for treatment, and cultured for a certain period, and after completing the culture, the medium was removed, and then cells were disrupted with a SDS sample buffer, and each protein was separated by SDS-PAGE gel electrophoresis, and transferred to a PVDF (polyvinylidene fluoride) membrane. Thereafter, non-specific binding was eliminated using a blocking buffer, and an antibody against LC3 protein and a HRP-bound secondary antibody (anti-rabbit IgG HRP (sigma)) were reacted, and then an enhanced chemiluminescence (ECL) reaction using an ECL prime kit (Amersham Pharmacia) was carried out, thereby performing a ChemiDoc analysis.

[2] = test system: IL-36G (interleukin 36, gamma); test: RT-PCR of psoriasis-related gene IL-36G; type: cell-based, human; conditions: HEKa cells, 20 uM, FIGS. 2 and 3
Method: (§1) A psoriasis-related genes were selected from the cDNA array result in which Compound 8 of the present invention was treated in HaCaT cells. In order to analyze whether Compound 8 has an effect on psoriasis alleviation, RT-PCR analysis for IL-36′ (interleukin 36 gamma), KLK7 (Kallikrein-related peptidase 7), OASL (2′-5′-Oligoadenylate Synthetase Like) and ALOX12B (Arachidonate 12-lipoxygenase, 12R type) which are very closely related to psoriasis was carried out. Further, KRT16 (Keratin 16), KRT6 (Keratin 6) and KRT1 (Keratin 1), known as psoriasis-related proliferation, differentiation markers were confirmed by a western blot analysis. As the specific experimental method, HEKa cells (Human Epidermal keratinocytes, adult), human-derived epidermal keratinocytes were seeded on a 24 well plate at a density of 1×10^5 cells, and cultured in an EpiLife medium (1× Human keratinocyte Growth supplement, 1× antibiotics) in an incubator under 37° C. and 5% CO2 for 24 hours. […]

[3] = test system: OASL (2′-5′-Oligoadenylate Synthetase Like); test: RT-PCR of psoriasis-related gene OASL; type: cell-based, human; conditions: HEKa cells, 20 uM, FIGS. 2 and 3
Method: as §1

KRT6 (Keratin 6) = test: Western blot of proliferative marker KRT6; type: cell-based, human; conditions: FIG. 4
Method: as §1

IL-6 (interleukin 6) = test: ELISA for IL-6 in HEKa cells under inflammatory condition; type: cell-based, human; conditions: TNF-α/IFN-γ or IL-17A/IL-22 induced inflammatory condition, 10·M, FIGS. 5 to 7
Method: (§2) In order to analyze whether treatment of Compound 8 has an atopy alleviation effect, ELISA (enzyme-linked immunosorbent assay) for IL-6 (interleukin 6) and IL-8 (interleukin 8) which are very closely related to atopic inflammation and psoriasis was performed.
(§3) As the specific experimental method, HEKa cells (Human Epidermal keratinocytes, adult), human-derived epidermal keratinocytes were seeded on a 24 well plate at a density of 1×10^5 cells, and cultured in an EpiLife medium (1× Human keratinocyte Growth supplement, 1× antibiotics) in an incubator under 37° C. and 5% CO2 for 24 hours.
(§4) After culturing, while an inflammatory condition was induced by treatment with either TNF-α (Tumor necrosis factor-α)/IFN-γ (interferon-γ) or IL-17A (interleukin-17A)/IL-22 (interleukin-22) in each well, further treatment was performed with Compound 8 of the present invention at a concentration of 10·M, and then the cells were incubated for a certain period. After completing culturing, media were collected, and then ELISA for each IL-6 and IL-8 was carried out.

IL-8 (interleukin 8) = test: ELISA for IL-8 in HEKa cells under inflammatory condition; type: cell-based, human; conditions: TNF-α/IFN-γ or IL-17A/IL-22 induced inflammatory condition, 10·M, FIGS. 5 to 7
Method: as §2, §3, §4

IL-24 (interleukin-24) = test: Cytokine gene expression, IL-24, TNFα/IFN-γ induced inflammatory condition; type: cell-based, human; conditions: FIG. 8
[4] = test system: IL-36γ (interleukin 36, gamma); test: Cytokine gene expression, IL-36γ, IL-17A/TNF-α condition; type: cell-based, human; conditions: FIG. 9
[5] = test system: CCL20 (Chemokine (C-C motif) ligand 20); test: Cytokine gene expression, CCL20, IL-17A/TNF-α condition; type: cell-based, human; conditions: FIG. 9
[6] = test system: psoriasis animal model induced by imiquimod 5% cream; test: Psoriasis animal model, H&E staining of back tissue; type: in vivo, BALB/c mice; conditions: FIG. 15
Method: (§5) In order to confirm the psoriasis treatment effect by Compound 8 of the present invention, dorsal hair of 8-week-old BALB/c mice (female) was removed using hair removal cream (Veet®, Oxy Reckitt Benckiser, Cedex, France), and subsequently imiquimod 5% cream (Aldara®; 3M Pharmaceuticals, UK; 62.5 mg) was applied on the back and both ears of the mice twice in the morning and in the afternoon (Sensitization; Day 0). Then, after a barrier recovery period of 2 days, imiquimod 5% cream (62.5 mg/day) was applied repeatedly for 7 days (Induction stage; Day 2 -Day 8), thereby inducing the psoriasis animal model.
After inducing the psoriasis animal model, Compound 8 of the present invention dissolved in ethanol (0.5%) and cream containing Compound 8 of the present invention (The same composition as that of the cosmetic composition of Example 14 except that it contained 0.5% by weight of Compound 8) were applied on the back once in the morning for 5 days (Treatment Stage; Day 8-Day 12). An untreated control group and a disease control group (vehicle) were treated with cream not containing Compound 8 of the present invention (cosmetic composition of Comparative Example 2) and ethanol, and during the treatment period, imiquimod 5% cream was applied thereon every other day, thereby maintaining psoriasis. […]

[7] = Psoriasis animal model, weight change; type: in vivo, BALB/c mice; conditions: topical treatment, FIG. 16
Method: as §5
After inducing the psoriasis animal model, Compound 8 of the present invention dissolved in ethanol (0.5%) and cream containing Compound 8 of the present invention (The same composition as that of the cosmetic composition of Example 14 except that it contained 0.5% by weight of Compound 8) were applied on the back once in the morning for 5 days (Treatment Stage; Day 8-Day 12). An untreated control group and a disease control group (vehicle) were treated with cream not containing Compound 8 of the present invention (cosmetic composition of Comparative Example 2) and ethanol, and during the treatment period, imiquimod 5% cream was applied thereon every other day, thereby maintaining psoriasis.

With `CCCCCCCCCCCCCCCC(=O)NCCCC[C@H](NC(=O)[C@H](CCCCN(CC(=O)O)CC(=O)O)N(CC(=O)O)CC(=O)O)C(=O)O` [Compound 8] the “production of LC3-II” value [1] was “increased”, the “expression level of IL-36G gene” value [2] was “significantly decreased” and the “expression level of OASL gene” value [3] was “significantly decreased”. For the same compound, the “KRT6 (proliferative marker) level” value (KRT6 (Keratin 6)) was “reduced”, the “secretion of IL-6” value (IL-6 (interleukin 6)) was “significantly reduced” and the “secretion of IL-8” value (IL-8 (interleukin 8)) was “significantly reduced”. The “expression level of IL-24” value (IL-24 (interleukin-24)) was “reduced”, the “expression level of IL-36γ” value [4] was “reduced” and the “expression level of CCL20” value [5] was “reduced”. For the same compound, the “thickness of stratum corneum” value [6] was “significantly reduced” and the “weight change after treatment” value [7] was “almost similar to those of the control group”.
